Assay results as given in patent US20110088107A1, “COMPOSITIONS AND METHODS FOR DERIVING OR CULTURING PLURIPOTENT CELLS” (priority 2009, published 2011).

Key:
[1] = test system: NOD ES cells; test: Blastocyst injection (2N) and chimera generation from NOD ES lines; type: in vivo, mouse; settings: NOD ES line derived and propagated with the inhibitors; 2N injections
Procedure: Diploid B6D2F2 blastocysts (94-98 h after hCG injection) were placed in a drop of M2 medium under mineral oil. A flat-tip microinjection pipette with an internal diameter of 16 μm was used for cell injection using a Piezo micromanipulator (Primetech, Japan). About 10 cells were injected into the blastoceol cavity. After injection, the embryos were cultured in KSOM medium and placed in a 37° C. humidified CO2 chamber until transferred to recipient females. Ten to fifteen injected blastocysts were transferred to each uterine horn of 2.5 days post coitum pseudo-pregnant B6D2F1 females. For teratoma generation, 2*106 cells were injected subcutaneously into both flanks of recipient SCID mice, and tumors were harvested for sectioning 3-6 weeks after initial injection. […] were collagenased and manually dissociated into small pieces and injected subcutaneously in to immuno deficient mice.

[2] = test system: NOD-iPS cells; test: Dox-independent propagation of Dox-dependent NOD-iPS cells in supplemented mESM; type: cell-based, mouse (NOD); settings: mESM lacking Dox
Excerpt: FIGS. 4(A)-4(H) illustrate generation of genetically unmodified germline competent NOD ES cells. (A) Experimental outline for derivation of iPS lines that grow in the presence of small molecules and in the absence of Dox. Representative images of NOD iPS lines growing in mESM supplemented with the indicated small molecules or growth factors. (B) Single-cell cloning efficiency of NOD iPS cells in different growth conditions. WT or NOD-iPS cells grown in mESM and KP were sorted in 96 well plates and cultured in mESM supplemented with small molecules. The number of wells containing Nanog+ colonies was counted after 6 days. Efficiencies were normalized to that of C57B6/129F1-iPS cells (“permissive” controls) plated in mESM and defined as 100%. SD for average efficiencies from 2 experiments are shown. Student test P value compares KP/CH to PD/CH mESM conditions for NOD iPS cells. (C) Expansion of day E3.5 ICM derived NOD ES cells in the presence of KP, KP/CH or PD/CH and derivation of stable ES lines. Images of initial colonies observed at passage 2 after embryo dissociation are shown together with representative images at later passages. (D) Karyotype of NOD ES lines. (E) Immunostaining of NOD ES lines for pluripotency markers. Inhibitors used during cell line derivation and propagation are indicated. (F) Chimerism in adult mice generated from the indicated cell lines is evident by the presence of agouti (brown) and albino coat color originating from the NOD background. […] (G) Real-Time PCR analysis for endogenous expressed Oct4, c-Myc and Klf4 genes in NOD iPS and ES cells grown in the indicated conditions. Relative expression levels are normalized to levels detected in control 129 ES cells. (H) Southern analysis indicating correct targeting of the endogenous Nanog locus in NOD ES cells with Nanog-GFP knock-in targeting construct.
Small molecules have been identified to replace some of the reprogramming factors in iPS derivation (Huangfu et al., 2008; Shi et al., 2008). […]

[3] = test system: 129 EpiSCs; test: Conversion of EpiSCs into ICM-like iPS cells; type: cell-based, mouse; settings: medium (mESM) supplemented, no transgene
Excerpt: FIGS. 24(A)-24(B) show small molecule conversion of distinct pluripotent states. ([…] derived from the epiblast of day E5.5 mouse embryos or NOD […] ES cells and were reprogrammed into ICM-like after culture in the mESM+KP/CH. While most colonies differentiated due to withdrawal of bFGF and change of medium (indicated by asterisks), ES-like colonies could be observed after 7-9 days and passaged via trypsinization. Within 2 passages ICM-like ES lines could be stably generated. (B) However, NOD […] which was derived from NOD-ES #43 by withdrawing KP/CH and growing the cells in […] conditions for over 8 passages (FIG. 6F), remained dependent on KP/CH molecules. Factors and growth conditions utilized to facilitate the identity conversion at each step are indicated in parenthesis. The pluripotency state was evaluated and defined based on Oct4 enhancer activity, inhibitor sensitivity (indicated in red or blue accordingly for each line). Identical results were obtained by using PD/CH inhibitor combination or KP alone (data not shown). Work described here further analyzed whether the exogenous stimuli defined in this study could interconvert the two distinct pluripotent states. This work first tested whether infection of previously characterized E5.5 derived 129 […] et al., 2007) with a Klf4 or c-Myc Dox inducible vectors could convert the EpiSCs to an ICM-like pluripotent state. […]

O=C1Cc2c([nH]c3ccc(Br)cc23)-c2ccccc2N1 [Kenpaullone, 9-bromo-7,12-dihydroindolo[3,2-d][1]benzazepin-6(5H)-one]
% Chimerism (coat color) [1]: 40-90%
Born chimeras [1]: 17
Germline Transmission [1]: yes
Dox-independent growth of pluripotent NOD-iPS cells [2]: supported Dox-independent growth
conversion of EpiSCs into iPS cells (ICM-like pluripotency) [3]: conversion can be accomplished
